{
  "source": "paper PMC5394417",
  "about": "“Investigating the molecular mechanism of positive and negative allosteric modulators in the calcium-sensing receptor dimer” (Scientific Reports, 2017)",
  "biological_target": "T1, HA-S170A/D190A CaSR mutant (Rattus norvegicus, UniProt P48442, D190A/S170A)",
  "T1 construct": "mGluR5 signal peptide (N); expressed in transfected cells; host or cells: HEK293T",
  "T1 sequence (P48442 20-1079 S170A/D190A)": "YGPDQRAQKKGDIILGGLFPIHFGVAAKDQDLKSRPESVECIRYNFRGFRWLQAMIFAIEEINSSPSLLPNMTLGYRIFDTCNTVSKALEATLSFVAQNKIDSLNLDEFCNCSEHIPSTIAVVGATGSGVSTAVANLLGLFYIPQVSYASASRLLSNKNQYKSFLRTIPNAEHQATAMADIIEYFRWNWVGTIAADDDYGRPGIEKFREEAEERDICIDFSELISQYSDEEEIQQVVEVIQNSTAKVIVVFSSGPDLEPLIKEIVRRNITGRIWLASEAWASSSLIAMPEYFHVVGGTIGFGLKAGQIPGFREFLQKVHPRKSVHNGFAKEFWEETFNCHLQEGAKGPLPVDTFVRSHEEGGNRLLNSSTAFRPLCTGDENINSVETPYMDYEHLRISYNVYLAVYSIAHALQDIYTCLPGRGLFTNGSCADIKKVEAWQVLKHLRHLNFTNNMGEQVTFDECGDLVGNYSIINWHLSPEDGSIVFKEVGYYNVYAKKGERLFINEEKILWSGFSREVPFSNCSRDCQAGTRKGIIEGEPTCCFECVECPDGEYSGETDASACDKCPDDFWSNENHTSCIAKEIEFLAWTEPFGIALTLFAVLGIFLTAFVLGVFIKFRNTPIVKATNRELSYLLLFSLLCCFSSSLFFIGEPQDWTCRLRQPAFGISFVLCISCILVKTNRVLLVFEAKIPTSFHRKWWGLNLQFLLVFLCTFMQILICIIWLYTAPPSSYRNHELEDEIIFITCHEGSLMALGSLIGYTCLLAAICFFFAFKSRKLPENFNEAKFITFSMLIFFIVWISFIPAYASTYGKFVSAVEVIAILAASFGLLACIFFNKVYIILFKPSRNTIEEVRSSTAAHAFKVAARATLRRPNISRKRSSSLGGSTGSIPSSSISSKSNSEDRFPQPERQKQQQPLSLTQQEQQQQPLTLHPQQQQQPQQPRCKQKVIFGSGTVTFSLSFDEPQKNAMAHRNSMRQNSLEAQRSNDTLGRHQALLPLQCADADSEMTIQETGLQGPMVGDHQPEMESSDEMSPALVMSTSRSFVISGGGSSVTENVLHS",
  "assay": "IP-One assay, HEK293T transiently transfected",
  "assay_type": "cell-based",
  "data": [
    {"smiles": "[Ca+2]", "note": "[Ca^2+]", "values": [
      {"measurement": "EC50", "setting": "Ca^2+ alone", "result": 31.8, "unit": "mM"},
      {"measurement": "Hill coefficient ± S.E.M.", "setting": "Ca^2+ alone", "result": "4.05 ± 0.43"},
      {"measurement": "pEC50 ± S.E.M.", "setting": "Ca^2+ alone", "result": "1.50 ± 0.04"},
      {"measurement": "Max ± S.E.M.", "setting": "normalized to maximum response of WT CaSR", "result": "49 ± 2.5", "unit": "%"}
    ]}
  ]
}
